Experiment [1] has as its system blood PEA level of depressed patient. The experiment can be described thus: Blood PEA level of depressed patients during continuous administration (Example 2). The format is in vivo. Particulars: for Blood PEA level After continuous administration / Blood PEA level During continuous administration: continuous administration periods about 6 to 24 months; for Blood PEA level Before administration: before administration in Example 1, patients with continuous administration.
Experimental: Among the patients to whom the depression treatment drug was administered in Example 1, the patients who received continuous administration also after the period of Example 1 were investigated. The number of patients who received continuous administration of the SNRI was nine. On the other hand, the number of patients who received continuous administration of the SSRI was five. Although the continuous administration periods (including the administration period in Example 1) variably depended on the patients, they ranged from about 6 to 24 months. The blood PEA levels in the course of and after the end of the continuous administration of these patients were measured in the same procedure as in Example 1.
• t-test: Significant difference test of blood PEA level after continuous administration with respect to that before administration

For experiment [2] the test system is unchanged. The experiment can be described thus: Blood PEA level of depressed patients before and after administration of SNRI or SSRI (Example 1). Particulars: average value; for Blood PEA level After administration: after administration period of about 0.5 to 7 months; for Blood PEA level Before administration: baseline of the drug group, plasma, ion chromatography fluorescent detection. The format is in vivo. How it is done: After an informed consent was given to a patient who visited the clinic of the inventors, the patient's blood was collected. The blood PEA level was measured using an ion chromatography fluorescent detection method according to the following procedure. 50 μL of plasma and 450 μL of Milli-Q water were put in an Eppendorf tube and mixed by vortexing. The mixture was transferred to an ultrafiltration filter ([…] 5 kDa cut filter, Millipore Corporation), and subjected to centrifugal filtration (4° C., 9,100×g, 2 hours) until the solution in the filter disappeared. […] As subjects, 30 patients having the blood PEA levels ranging from 0.77 to 2.62 μM were employed. As a depression treatment drug, the SSRI or SNRT shown in Table 3 was administered to the patients. The blood PEA level after the administration was measured in the same procedure as before the administration. Although the administration periods variably depended on the patients, they ranged from about 0.5 to 7 months.

Structures are written as SMILES.

Turning to `CN(C)CCC[C@@]1(c2ccc(F)cc2)OCc2cc(C#N)ccc21` [Escitalopram, escitalopram], in experiment [1], the “Blood PEA level After continuous administration” value amounted to 1.73 µM. In addition, the “Blood PEA level After administration” value in experiment [2] stood at 1.22 µM.
Take `CNCC[C@H](Oc1cccc2ccccc12)c1cccs1` [Duloxetine, duloxetine]: in experiment [1], the “Blood PEA level Before administration” value amounted to 1.11 µM, the “Blood PEA level After continuous administration” value amounted to 1.82 µM and the “Blood PEA level During continuous administration” value worked out at 1.47 µM. Besides, in experiment [2], the “Blood PEA level After administration” value was determined as 1.46 µM and the “Blood PEA level Before administration” value worked out at 1.10 µM.
Turning to `CN[C@H]1CC[C@@H](c2ccc(Cl)c(Cl)c2)c2ccccc21` [Sertraline, sertraline], in experiment [1], the “Blood PEA level Before administration” value was found to be 1.39 µM and the “Blood PEA level After continuous administration” value came to 1.47 µM. Moreover, in experiment [2], the “Blood PEA level After administration” value came out at 1.26 µM and the “Blood PEA level Before administration” value turned out to be 1.39 µM.
For the molecule `CCN(CC)C(=O)C1(c2ccccc2)CC1CN` (stereo not drawn) [Milnacipran, milnacipran], in experiment [1], the “Blood PEA level Before administration” value was determined as 1.44 µM, the “Blood PEA level After continuous administration” value was 1.94 µM and the “Blood PEA level During continuous administration” value is 1.71 µM. In experiment [2], the “Blood PEA level After administration” value amounted to 1.66 µM and the “Blood PEA level Before administration” value amounted to 1.27 µM.
Turning to `Fc1ccc([C@@H]2CCNC[C@H]2COc2ccc3c(c2)OCO3)cc1` [Paroxetine, paroxetine], in experiment [2], the “Blood PEA level After administration” value is 1.21 µM and the “Blood PEA level Before administration” value is 1.42 µM.
